The test system of data set [1] is Mycobacterium tuberculosis (M. tuberculosis Kurono). Kind of data set: Antibacterial test (agar dilution method), M. tuberculosis Kurono. The class given is cell-based. The following applies: 7H11 agar medium, about 10^6 CFU/mL, 37° C. for 14 days; for MIC: Mycobacterium tuberculosis, 336 h, read-out: Minimum inhibitory concentration (MIC) kurono.

Each structure is given as a SMILES string.

For the molecule `O=C1CCc2c(OC[C@]3(O)CC[C@@H](c4ccc(Cl)cc4F)C[C@H]3O)ccc(F)c2N1` (relative stereo) [Example 471, 5-{[(1R*,2R*,4R*)-4-(4-Chloro-2-fluorophenyl)-1,2-dihydroxycyclohexyl]methoxy}-8-fluoro-3,4-dihydroquinolin-2(1H)-one], the MIC in data set [1] is under 0.39 µg/mL. Still for that read-out and setting: as for `O=C1CCc2c(OC[C@]3(O)CC[C@@](O)(c4ccc(Cl)cc4F)C[C@H]3O)ccc(F)c2N1` (relative stereo) [Example 473, 5-{[(1R*,2R*,4S*)-4-(4-Chloro-2-fluorophenyl)-1,2,4-trihydroxycyclohexyl]methoxy}-8-fluoro-3,4-dihydroquinolin-2(1H)-one], the figure is under 0.39 µg/mL.

Consider `NC1(COc2ccc(F)c3c2CCC(=O)N3)CCN(c2ncc(Cl)cc2Cl)CC1` [Example 1, 5-{[4-Amino-1-(3,5-dichloropyridin-2-yl)piperidin-4-yl]methoxy}-8-fluoro-3,4-dihydroquinolin-2(1H)-one], for which, in data set [1], the MIC is under 0.39 µg/mL.

With `NC1(COc2ccc(Cl)c3c2CCC(=O)N3)CCN(c2ccc(Cl)cc2F)CC1` [Example 14, 5-{[4-Amino-1-(4-chloro-2-fluorophenyl)piperidin-4-yl]methoxy}-8-chloro-3,4-dihydroquinolin-2(1H)-one], in data set [1], the MIC is under 0.39 µg/mL. Still for that read-out and setting: as for `NC1(COc2ccc(Cl)c3[nH]c(=O)ccc23)CCN(c2ccc(Cl)cc2F)CC1` [Example 17, 5-{[4-Amino-1-(4-chloro-2-fluorophenyl)piperidin-4-yl]methoxy}-8-chloroquinolin-2(1H)-one], the figure is under 0.39 µg/mL. Still for that read-out and setting: as for `O=C1CCc2c(OCC3(O)CCN(c4ccc(Cl)cc4)CC3)ccc(F)c2N1` [Example 49, 5-{[1-(4-Chlorophenyl)-4-hydroxypiperidin-4-yl]methoxy}-8-fluoro-3,4-dihydroquinolin-2(1H)-one], the figure is under 0.39 µg/mL. As to `O=C1CCc2c(OCC3(O)CCN(c4ccc(Cl)cc4F)CC3)ccc(F)c2N1` [Example 52, 5-{[1-(4-Chloro-2-fluorophenyl)-4-hydroxypiperidin-4-yl]methoxy}-8-fluoro-3,4-dihydroquinolin-2(1H)-one], the melting point was 190.6 to 190.7 °C. Also, the MIC in data set [1] was under 0.39 µg/mL. The like results for `CCOc1ccc(N2CCC(O)(COc3ccc(F)c4c3CCC(=O)N4)CC2)c(F)c1` [Example 85, 5-{[1-(4-Ethoxy-2-fluorophenyl)-4-hydroxypiperidin-4-yl]methoxy}-8-fluoro-3,4-dihydroquinolin-2(1H)-one] were, in that order, 196 to 196.1 °C and under 0.39 µg/mL.

In the case of `O=C1CCc2c(OCC3(O)CCN(c4c(F)cc(Cl)cc4F)CC3)ccc(Cl)c2N1` [Example 102, 8-Chloro-5-{[1-(4-chloro-2,6-difluorophenyl)-4-hydroxypiperidin-4-yl]methoxy}-3,4-dihydroquinolin-2(1H)-one], the melting point was 181 to 181.2 °C. In data set [1], the MIC was under 0.39 µg/mL. In the case of `O=C1CCc2c(OCC3(O)CCN(c4ccc(Br)cc4F)CC3)cc(F)c(F)c2N1` [Example 130, 5-{[1-(4-Bromo-2-fluorophenyl)-4-hydroxypiperidin-4-yl]methoxy}-7,8-difluoro-3,4-dihydroquinolin-2(1H)-one], in data set [1], the MIC was under 0.39 µg/mL. `O=c1ccc2c(OCC3(O)CCN(c4ccc(Cl)cc4F)CC3)cccc2[nH]1` [Example 138, 5-{[1-(4-Chloro-2-fluorophenyl)-4-hydroxypiperidin-4-yl]methoxy}quinolin-2(1H)-one] displayed a melting point of 275.7 to 277 °C. For the same molecule, the MIC in data set [1] is under 0.39 µg/mL. In the case of `O=C1CCc2c(OCC3(O)CCN(c4ncc(Cl)cc4Cl)CC3)ccc(Cl)c2N1` [Example 139, 8-Chloro-5-{[1-(3,5-dichloropyridin-2-yl)-4-hydroxypiperidin-4-yl]methoxy}-3,4-dihydroquinolin-2(1H)-one], the melting point turned out to be 218 °C. In addition, the MIC in data set [1] is under 0.39 µg/mL. On to `O=C1CCc2c(cc(F)cc2OCC2(O)CCN(c3ccc(Cl)cc3F)CC2)N1` [Example 194, 5-{[1-(4-Chloro-2-fluorophenyl)-4-hydroxypiperidin-4-yl]methoxy}-7-fluoro-3,4-dihydroquinolin-2(1H)-one], for which, in data set [1], the MIC was under 0.39 µg/mL. As for `Cc1c(F)cc(OCC2(O)CCN(c3cc(F)c(Cl)cc3Cl)CC2)c2c1NC(=O)CC2` [Example 206, 5-{[1-(2,4-Dichloro-5-fluorophenyl)-4-hydroxypiperidin-4-yl]methoxy}-7-fluoro-8-methyl-3,4-dihydroquinolin-2(1H)-one], the MIC in data set [1] was under 0.39 µg/mL. The same measure, in the same setting: the result for `O=C1CCc2c(OCC3(O)CCN(c4c(F)cc(F)cc4F)CC3)cc(F)c(Cl)c2N1` [Example 214, 8-Chloro-7-fluoro-5-{[4-hydroxy-1-(2,4,6-trifluorophenyl)piperidin-4-yl]methoxy}-3,4-dihydroquinolin-2(1H)-one] reads under 0.39 µg/mL; that for `O=C1CCc2c(OC[C@]3(O)CCN(c4ncc(Cl)cc4Cl)C[C@H]3O)ccc(F)c2N1` [Example 251, 5-{[(3R,4R)-1-(3,5-Dichloropyridin-2-yl)-3,4-dihydroxypiperidin-4-yl]methoxy}-8-fluoro-3,4-dihydroquinolin-2(1H)-one], under 0.39 µg/mL. On to `O=C1CCc2c(OC[C@@]3(O)CCN(c4ncc(Cl)cc4Cl)C[C@@H]3O)ccc(F)c2N1` [Example 252, 5-{[(3S,4S)-1-(3,5-Dichloropyridin-2-yl)-3,4-dihydroxypiperidin-4-yl]methoxy}-8-fluoro-3,4-dihydroquinolin-2(1H)-one], for which the MIC in data set [1] was under 0.39 µg/mL. Still for that read-out and setting: the result for `O=C1CCc2c(OC[C@]3(O)CCN(c4c(F)cc(Cl)cc4F)C[C@H]3O)ccc(F)c2N1` [Example 260, 5-{[(3R,4R)-1-(4-Chloro-2,6-difluorophenyl)-3,4-dihydroxypiperidin-4-yl]methoxy}-8-fluoro-3,4-dihydroquinolin-2(1H)-one] reads under 0.39 µg/mL; that for `O=C1CCc2c(OC[C@@]3(O)CCN(c4ccc(Cl)cc4F)C[C@@H]3O)ccc(F)c2N1` [Example 265, 5-{[(3S,4S)-1-(4-Chloro-2-fluorophenyl)-3,4-dihydroxypiperidin-4-yl]methoxy}-8-fluoro-3,4-dihydroquinolin-2(1H)-one], under 0.39 µg/mL; that for `O=C1CCc2c(OC[C@]3(O)CCN(c4nc5ccc(Cl)cc5cc4Br)C[C@H]3O)ccc(F)c2N1` [Example 288, 5-{[(3R,4R)-1-(3-Bromo-6-chloroquinolin-2-yl)-3,4-dihydroxypiperidin-4-yl]methoxy}-8-fluoro-3,4-dihydroquinolin-2(1H)-one], under 0.39 µg/mL. On the same count and under the same terms, the result for `O=C1CCc2c(OC[C@]3(O)CCN(c4c(F)cc(Cl)cc4F)C[C@@H]3O)ccc(F)c2N1` [Example 361, 5-{[(3S,4R)-1-(4-Chloro-2,6-difluorophenyl)-3,4-dihydroxypiperidin-4-yl]methoxy}-8-fluoro-3,4-dihydroquinolin-2(1H)-one] reads under 0.39 µg/mL.

As for `O=C1CCc2c(NCC3(O)CCN(c4ncc(Cl)cc4Cl)CC3)ccc(F)c2N1` [Example 372, 5-({[1-(3,5-Dichloropyridin-2-yl)-4-hydroxypiperidin-4-yl]methyl}amino)-8-fluoro-3,4-dihydroquinolin-2(1H)-one], the MIC in data set [1] is under 0.39 µg/mL. As to `O=C1CCc2c(OCC3(F)CCN(c4ncc(Cl)cc4Cl)CC3)ccc(F)c2N1` [Example 404, 5-{[1-(3,5-Dichloropyridin-2-yl)-4-fluoropiperidin-4-yl]methoxy}-8-fluoro-3,4-dihydroquinolin-2(1H)-one], the MIC in data set [1] is under 0.39 µg/mL. The same measure, in the same setting: as for `CCOC(=O)O[C@@H]1CN(c2c(F)cc(Cl)cc2F)CC[C@@]1(O)COc1ccc(F)c2c1CCC(=O)N2` [Example 450, (3R,4R)-1-(4-chloro-2,6-difluorophenyl)-4-{[(8-fluoro-2-oxo-1,2,3,4-tetrahydroquinolin-5-yl)oxy]methyl}-4-hydroxypiperidin-3-yl ethyl carbonate], the figure is under 0.39 µg/mL; as for `CC(=O)O[C@@H]1CN(c2ccc(Cl)cc2F)CC[C@@]1(O)COc1ccc(F)c2c1CCC(=O)N2` [Example 454, (3R,4R)-1-(4-Chloro-2-fluorophenyl)-4-{[(8-fluoro-2-oxo-1,2,3,4-tetrahydroquinolin-5-yl)oxy]methyl}-4-hydroxypiperidin-3-yl acetate], under 0.39 µg/mL; as for `O=C1CCc2c(CCC3(O)CCN(c4c(F)cc(Cl)cc4F)CC3)ccc(F)c2N1` [Example 463, 5-{2-[1-(4-Chloro-2,6-difluorophenyl)-4-hydroxypiperidin-4-yl]ethyl}-8-fluoro-3,4-dihydroquinolin-2(1H)-one], under 0.39 µg/mL. As for `O=C1CCc2c(OCC3(O)CCC(O)(c4ccc(Cl)cc4F)CC3)ccc(F)c2N1` (stereo not drawn) [Example 465, 5-{[trans-4-(4-Chloro-2-fluorophenyl)-1,4-dihydroxycyclohexyl]methoxy}-8-fluoro-3,4-dihydroquinolin-2(1H)-one], the “Minimum inhibitory concentration (MIC) kurono” value in data set [1] was under 0.39 µg/mL.

Turning to `O=C1CCc2c(OCC3(O)CCC(c4ccc(Cl)cc4F)CC3)ccc(F)c2N1` (stereo not drawn) [Example 469, 5-{[cis-4-(4-Chloro-2-fluorophenyl)-1-hydroxycyclohexyl]methoxy}-8-fluoro-3,4-dihydroquinolin-2(1H)-one], the “Minimum inhibitory concentration (MIC) kurono” value in data set [1] is under 0.39 µg/mL. The same measure, in the same setting: as for `N#CC1(c2ccc(Cl)cc2F)CCC(O)(COc2ccc(F)c3c2CCC(=O)N3)CC1` (stereo not drawn) [Example 476, trans-1-(4-Chloro-2-fluorophenyl)-4-{[(8-fluoro-2-oxo-1,2,3,4-tetrahydroquinolin-5-yl)oxy]methyl}-4-hydroxycyclohexanecarbonitrile], the figure is under 0.39 µg/mL; as for `COC1(c2ccc(Cl)cc2F)CCC(O)(COc2ccc(F)c3c2CCC(=O)N3)CC1` (stereo not drawn) [Example 477, 5-{[trans-4-(4-Chloro-2-fluorophenyl)-1-hydroxy-4-methoxycyclohexyl]methoxy}-8-fluoro-3,4-dihydroquinolin-2(1H)-one], under 0.39 µg/mL.
